Measured values as given in patent US4602018A, “Condensed as-triazine derivatives” (Egyt Gyogyszevegyeszeti Gyar, priority 1983, dated 1986).
Where two headings read alike, the source gives them in different places.

Key:
Assay type in all cases: in vivo
tetrabenazine ptosis [1] = assay: Antagonism of tetrabenazine ptosis on mice, p.o.; details: for ED50: tetrabenazine 50 mg/kg i.p.
reserpine ptosis = assay: Antagonism of reserpine ptosis on rats, p.o.; details: for ED50: reserpine 2.5 mg./kg. s.c.
Description: The animals showing ptosis are counted until the effect decreases. The evaluation is carried out as described in connection with the previous ptosis test (test 3).

tetrabenazine ptosis [2] = assay: Antagonism of tetrabenazine ptosis on rats, p.o.
Description: (3) ANTAGONISM OF TETRABENAZINE PTOSIS, ON MICE AND RATS, P.O. […] The results are evaluated as follows: on the basis of all the measured data an average ptosis is calculated for each group and the deviation from the average of the control group is expressed in percent (inhibition). The ED50 values are calculated from the data thus obtained.

Acute toxicity on mice = details: mouse, in vivo, po, 7 days observation
Description: (§1) The test is carried out on male and female white mice belonging to the CFLP strain and weighing 18-22 g. The test compound is administered orally and the animals are observed for a period of 7 days. In the groups for each dose half of the animals are male and the other half are female. The animals are kept in a plastic box (39×12×12 cm) on scrapings litter at room temperature. The mice receive standard fodder and tap water ad libitum. The toxicity data are determined by the method of Litchfield-Wilcoxon.
(§2) The test compound is administered in an aqueous solution.

carrageenin oedema = assay: Antiinflammatory effect on rats (carrageenin paw oedema); details: for ED50: Rattus norvegicus, read-out: Oedema inhibitory effect ED50
Description: Into the planar surface of the hind leg of rats weighing 150-180 g. 0.1 ml. of 1% carrageenin is injected. The volume of the paw is determined before and 3 hours after the administration of the irritating agent with a plethysmometer. The animals are pre-treated with the test compound and the carrier (control), respectively, for an hour. Because of the different solubility properties Tween 80 as auxiliary agent is used.

[3] = system: aconitine-induced ECG changes; assay: animal or person; details: rats
Description: The test is carried out according to the modified method of Marmo et al. The test animals are narcotized with ethyl urethane (1.2 g./kg. i.p.). Aconitine is administered intravenously in the form of a bolus injection in a dose of 75 μg./kg. The changes of ECG are followed in standard II outlet 5 minutes after the administration of aconitine. The changes observed are evaluated with the aid of a scale from 0 to 5 points. The test compound is administered either intravenously 2 minutes before the addition of aconitine, or orally 1 hour before the aconitine administration.

Acute toxicity on rats = details: rat, in vivo, po, 14 days observation
tremorine-induced tremor = assay: Antitremorine effect on mice
Description: 20 mg./kg. of tremorine are administered i.p. to mice whereupon after 45 minutes the induced characteristic tremor is registered. The test compounds are administered orally 1 hour before the addition of tremorine.

mice = assay: Acute toxicity on mice; details: p.o., 7 days observation, 10080 min
Description: as §1, §2

rats = assay: Acute toxicity on rats; details: p.o., 14 days observation, 20160 min
[4] = Mus musculus, po, read-out: ED50
[5] = Rattus norvegicus, po, read-out: ED50
[6] = 0.1 ml. of 1% carrageenin, 3 hours, pre-treated for an hour
[7] = Rattus norvegicus, iv, i.v. 2 minutes before aconitine 75 μg./kg. i.v.
[8] = Rattus norvegicus, po, p.o. 1 hour before aconitine 75 μg./kg. i.v.

Q: Which results are given for `CN(C)CCC=C1c2ccccc2CCc2ccccc21` [Amitriptyline, N,N-dimethyl-3-[dibenzo[a,d]-cycloheptadiene-5-ylidene]-propylamine, reference compound]?
A: ED50 (tetrabenazine ptosis [1]; [4]): 12 mg/kg; Ther. index (reserpine ptosis): 3.6; ED50 (reserpine ptosis; [5]): ~140 mg/kg; Ther. index (tetrabenazine ptosis [2]): 46; LD50 at 168 h (Acute toxicity on mice): 225 mg/kg

Q: With `OC1(c2ccc(Cl)cc2)NC=N[n+]2ccc3ccccc3c21` (centres unmarked) [Compound A, 1-(4-chloro-phenyl)-1-hydroxy-1,2-dihydro-as-triazino[6,1-a]isoquinolinium-ethanesulfonate] as the compound, how does the Ther. index (tetrabenazine ptosis [1]) read?
A: 1367

Q: And the ED50 (tetrabenazine ptosis [1])?
A: 0.3 mg/kg

Q: And the Ther. index (reserpine ptosis)?
A: 92.8

Q: What about the ED50 (reserpine ptosis; [5]) of the same compound?
A: 14 mg/kg

Q: And the Ther. index (carrageenin oedema)?
A: 53.1

Q: What about the ED50 (carrageenin oedema; [6]) of the same compound?
A: 24.5 mg/kg

Q: What about the ED50 (tetrabenazine ptosis [2]) of the same compound?
A: 0.3 mg/kg

Q: What about the Ther. index (tetrabenazine ptosis [2]) of the same compound?
A: 4333

Q: What about the ED50 [3, 7] of the same compound?
A: 0.9 mg/kg

Q: What about the ED50 [3, 8] of the same compound?
A: 40 mg/kg

Q: And the Ther. index [3]?
A: 32.5

Q: And the LD50 at 168 h (Acute toxicity on mice)?
A: 410 mg/kg

Q: And the LD50 at 336 h (Acute toxicity on rats)?
A: 1300 mg/kg

Q: What does the source list for `OC1(c2ccc(Cl)cc2)NC=N[n+]2ccc3ccccc3c21` (centres unmarked) [Compound B, 1-(4-chloro-phenyl)-1-hydroxy-1,2-dihydro-as-triazino[6,1-a]isoquinolinium-chloride]?
A: Ther. index (tremorine-induced tremor): 93.3; ED50 (tremorine-induced tremor; Mus musculus, po, p.o. 1 hour before tremorine 20 mg./kg. i.p.): 6 mg/kg; Ther. index (tetrabenazine ptosis [1]): 1867; ED50 (tetrabenazine ptosis [1]): 0.3 mg/kg; Ther. index (reserpine ptosis): 39.3; ED50 (reserpine ptosis): 28 mg/kg; ED50 (tetrabenazine ptosis [2]): 1.0 mg/kg; Ther. index (tetrabenazine ptosis [2]): 1100; Ther. index [3]: 27.5; ED50 ([3]; i.v. 2 minutes before aconitine 75 μg./kg. i.v.): 1.6 mg/kg; ED50 ([3]; p.o. 1 hour before aconitine 75 μg./kg. i.v.): 30 mg/kg; LD50 (mice): 560 mg/kg; LD50 (rats): about 1100 mg/kg

Q: With `OC1(c2ccc(Cl)cc2)NC=N[n+]2ccc3ccccc3c21` (centres unmarked) [Compound C, 1-(4-chloro-phenyl)-1-hydroxy-1,2-dihydro-as-triazino[6,1-a]isoquinolinium-bromide] as the compound, how does the Ther. index (tetrabenazine ptosis [1]) read?
A: 203

Q: What about the ED50 (tetrabenazine ptosis [1]) of the same compound?
A: 2.9 mg/kg

Q: What about the Ther. index (reserpine ptosis) of the same compound?
A: 49.0

Q: And the ED50 (reserpine ptosis)?
A: 21 mg/kg

Q: And the ED50 (tetrabenazine ptosis [2])?
A: 5.4 mg/kg

Q: What about the Ther. index (tetrabenazine ptosis [2]) of the same compound?
A: 191

Q: What about the LD50 (mice) of the same compound?
A: 590 mg/kg

Q: What about the LD50 (rats) of the same compound?
A: about 1030 mg/kg

Q: With `CCN(CC)CC(=O)Nc1c(C)cccc1C` [Lidocain, α-diethylamino-2,6-dimethyl-acetanilide, reference compound] as the compound, how does the ED50 [3, 7] read?
A: 4 mg/kg

Q: What about the ED50 [3, 8] of the same compound?
A: 120 mg/kg

Q: What about the “Antiarrhythmial effect (in words)” value ([3]; i.v. and p.o.) of the same compound?
A: inactive

Q: What about the “Antiarrhythmial effect (percent in parentheses)” value ([3]; p.o., at 120 mg./kg.) of the same compound?
A: 3.5%

Q: What does the source list for `CCCCC1C(=O)N(c2ccccc2)N(c2ccccc2)C1=O` [Phenylbutazon, 4-butyl-1,2-diphenyl-3,5-pyrazolidine-dione]?
A: Ther. index (carrageenin oedema): 5.3; ED50 (carrageenin oedema; [6]): ~90 mg/kg

Q: Which results are given for `Clc1ccc(-c2ncn[n+]3ccc4ccccc4c23)cc1` [Reference compound D, 1-(4-chloro-phenyl)-as-triazino[6,1-a]isochinolinium-bromide, reference compound]?
A: Antitremorine effect ED50 (tremorine-induced tremor; p.o. 1 hour before tremorine 20 mg./kg. i.p.): inactive; ED50 (tetrabenazine ptosis [1]; [4]): 3.2 mg/kg; Ther. index (reserpine ptosis): 16.7; ED50 (reserpine ptosis; [5]): ~60 mg/kg; Oedema inhibitory effect ED50 (carrageenin oedema; [6]): no effect; Ther. index (tetrabenazine ptosis [2]): 179; ED50 (tetrabenazine ptosis [2]; [5]): 5.6 mg/kg; LD50 at 168 h (Acute toxicity on mice): 600 mg/kg
